Reference: patent US20050113405A1, “Methods of treating rheumatoid arthritis using NF-kB inhibitors” (Wyeth, priority 2003, published 2005)

Columns and labels:
[1] = test system: HLA-B27 transgenic rats; test: HLA-B27 transgenic rat, stool and clinical joint scores; assay type: in vivo; conditions: sub-optimal dose 0.6 mg/kg
Source text: (§1) The HLA-B27 transgenic rat expresses two human proteins (HLA-B27 and β2 microglobulin) that, over time, provoke a misdirected immune response. This model represents a chronic intestinal inflammation with associated arthritis induced by the human class I major histocompatibility allele HLA-B27 that is strongly associated with human disease. […] If the disease is allowed to progress, they begin to show symptoms of arthritis. […] Histological scoring of synovitis and cartilage damage in the tarsal joints after 29 days of treatment was also conducted.

[2] = test system: HLA-B27 transgenic rats; test: HLA-B27 transgenic rat, histological scoring of synovitis and cartilage damage in tarsal joints; assay type: in vivo; conditions: 0.6 mg/kg orally for 29 days
Source text: as §1

SMILES | melting point [°C] | improvement in the joint scores [1] [%] | Tidemark Integrity (0-2) [2] | Cartilage Cells ([2]; mean ± SD) | Cartilage Structure (0-6) ([2]; mean ± SD) | Fibroplasia (0-3) ([2]; mean ± SD) | Inflammatory Cells (0-3) ([2]; mean ± SD) | Pannus (0-2) ([2]; mean ± SD) | Safranin-O/Fast Green Staining (0-4) ([2]; mean ± SD) | Synovial Structure (0-3) ([2]; mean ± SD) | Total Mankin Score ([2]; mean ± SD) | Total Synovitis Score (0-11) ([2]; mean ± SD)
COc1cc(OC)cc(N2CCN(C(=O)[C@](C)(C#N)[C@H](c3ccccc3OC)c3cccc4ccccc34)CC2)c1 [Example 4, (S)-3-[4-(3,5-dimethoxyphenyl)piperazin-1-yl]-2-[(S)-(2-methoxyphenyl)(1-naphthyl)methyl]-2-methyl-3-oxopropanenitrile] | 186 to 188 |  |  |  |  |  |  |  |  |  |  | 
C[C@]12C=CC(=O)C=C1CC[C@@H]1[C@@H]2[C@@H](O)C[C@@]2(C)[C@H]1CC[C@]2(O)C(=O)CO [Prednisolone] |  | 50 | 0 | 2.20 ± 0.45 | 3.40 ± 0.55 | 2.00 ± 0.71 | 2.00 ± 0.00 | 1.60 ± 0.89 | 3.00 ± 0.00 | 2.40 ± 0.55 | 8.60 ± 0.89 | 8.00 ± 1.87
